The structures appear in SMILES notation.

The test system of the assay is Endogenous Huntingtin Protein. Briefly: Endogenous Huntingtin Protein Assay (ELISA-based Meso Scale Discovery electrochemiluminescence). The format is cell-based. As to conditions: MSD electrochemiluminescence, Table 1. Put shortly: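 Sandwich MSD electrochemiluminescence immunoassay. Capture used MW1 (expanded polyglutamine) or MAB2166 antibody coated at 1 μg/mL overnight at 4 °C. Samples were bound overnight at 4 °C, then a rabbit monoclonal detection antibody and SULFO-TAG anti-rabbit, each at 0.25 μg/mL, were applied for 1 h at room temperature.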
For orientation: ELISA stands for enzyme-linked immunosorbent assay.
The term IC50 denotes the concentration that inhibits the measured activity by half. The compound `CC1(C)CC(Nc2ncc(-c3ccc(-c4ccnnc4)cc3O)nn2)CC(C)(C)N1` [Cpd 314, 5-(pyridazin-4-yl)-2-{3-[(2,2,6,6-tetramethylpiperidin-4-yl)amino]-1,2,4-triazin-6-yl}phenol] showed an IC50 of at most 100 nM.
Next, `CC1(C)CC(Nc2ncc(-c3ccc(Nc4cccnc4)cc3O)nn2)CC(C)(C)N1` [Cpd 315, 5-[(pyridin-3-yl)amino]2-{3-[(2,2,6,6-tetramethylpiperidin-4-yl)amino]-1,2,4-triazin-6-yl}phenol]: at most 100 nM.
`CC(C)(CF)NC1CCN(c2ncc(-c3ccc(-c4cn[nH]c4)cc3O)nn2)C1` (stereo not drawn) [Cpd 316, 2-(3-{3-[(1-fluoro-2-methylpropan-2-yl)amino]pyrrolidin-1-yl}-1,2,4-triazin-6-yl)-5-(1H-pyrazol-4-yl)phenol] had an IC50 of at most 100 nM.
Next, `CCNC1CCN(c2ncc(-c3ccc(-c4cn[nH]c4)cc3O)nn2)C1` (stereo not drawn) [Cpd 317, 2-{3-[3-(ethylamino)pyrrolidin-1-yl]-1,2,4-triazin-6-yl}-5-(1H-pyrazol-4-yl)phenol]: at most 100 nM.
For `CN(C)C1CCN(c2ncc(-c3ccc(-c4cn[nH]c4)cc3O)nn2)C1` (stereo not drawn) [Cpd 318, 2-{3-[3-(dimethylamino)pyrrolidin-1-yl]-1,2,4-triazin-6-yl}-5-(1H-pyrazol-4-yl)phenol] the value was 100 to 500 nM; for `Cn1ncc2cc(-c3ccc(-c4cnc(NC5CC(C)(C)NC(C)(C)C5)nn4)c(O)c3)ccc21` [Cpd 319, 5-(1-methyl-1H-indazol-5-yl)-2-{3-[(2,2,6,6-tetramethylpiperidin-4-yl)amino]-1,2,4-triazin-6-yl}phenol], at most 100 nM.
Next, `CNC1CCN(c2ncc(-c3ccc(-c4nnn(C)n4)cc3O)nn2)C1` (stereo not drawn) [Cpd 320, 2-{3-[3-(methylamino)pyrrolidin-1-yl]-1,2,4-triazin-6-yl}-5-(2-methyl-2H-tetrazol-5-yl)phenol]: 100 to 500 nM; `Cn1ncc2cc(-c3ccc(-c4cnc(NC5CC(C)(C)NC(C)(C)C5)nn4)c(O)c3)cnc21` [Cpd 321, 5-(1-methyl-1H-pyrazolo[3,4-b]pyridin-5-yl)-2-{3-[(2,2,6,6-tetramethylpiperidin-4-yl)amino]-1,2,4-triazin-6-yl}phenol]: at most 100 nM; `CC1(C)C[C@H](Nc2ncc(-c3ccc(-c4cn[nH]c4)cc3O)nn2)[C@H](F)C(C)(C)N1` [Cpd 322, 2-(3-{[(3S,4S)-3-fluoro-2,2,6,6-tetramethylpiperidin-4-yl]amino}-1,2,4-triazin-6-yl)-5-(1H-pyrazol-4-yl)phenol]: at most 100 nM.
Turning to `CC1(C)C[C@@H](Nc2ncc(-c3ccc(-c4cn[nH]c4)cc3O)nn2)[C@@H](F)C(C)(C)N1` [Cpd 323, 2-(3-{[(3R,4R)-3-fluoro-2,2,6,6-tetramethylpiperidin-4-yl]amino}-1,2,4-triazin-6-yl)-5-(1H-pyrazol-4-yl)phenol], the half-maximal inhibitory concentration (IC50) is at most 100 nM.
Turning to `CC1(C)CC(Nc2ncc(-c3ccc(-n4nccn4)cc3O)nn2)C(F)C(C)(C)N1` (stereo not drawn) [Cpd 324, 2-{3-[(3-fluoro-2,2,6,6-tetramethylpiperidin-4-yl)amino]-1,2,4-triazin-6-yl}-5-(2H-1,2,3-triazol-2-yl)phenol], the 50% inhibitory concentration (IC50) is at most 100 nM.
For `CC1(NC2CCN(c3ncc(-c4ccc(-c5cn[nH]c5)cc4O)nn3)C2)COC1` (stereo not drawn) [Cpd 325] the value was 100 to 500 nM; for `Cc1cn(-c2ccc(-c3cnc(N4CCC(NC(C)C)C4)nn3)c(O)c2)cn1` (stereo not drawn) [Cpd 326, 5-(4-methyl-1H-imidazol-1-yl)-2-(3-{3-[(propan-2-yl)amino]pyrrolidin-1-yl}-1,2,4-triazin-6-yl)phenol], at most 100 nM; for `Oc1cc(-c2cn[nH]c2)ccc1-c1cnc(N2C[C@H]3CNCC[C@H]3C2)nn1` [Cpd 327, 2-{3-[(3aR,7aR)-octahydro-2H-pyrrolo[3,4-c]pyridin-2-yl]-1,2,4-triazin-6-yl}-5-(1H-pyrazol-4-yl)phenol], at most 100 nM.
`Oc1cc(-c2cn[nH]c2)ccc1-c1cnc(N2CCNCC2)nn1` [Cpd 328, 2-[3-(piperazin-1-yl)-1,2,4-triazin-6-yl]-5-(1H-pyrazol-4-yl)phenol] returned an IC50 of 100 to 500 nM.
Next, `C[C@H](CF)N[C@H]1CCN(c2ncc(-c3ccc(-c4cn[nH]c4)cc3O)nn2)C1` [Cpd 329, 2-{3-[(3S)-3-{[(2R)-1-fluoropropan-2-yl]amino}pyrrolidin-l-yl]-1,2,4-triazin-6-yl}-5-(1H-pyrazol-4-yl)phenol]: 100 to 500 nM; `CC(C)NC1CCN(c2ncc(-c3ccc(-c4ccc5c(cnn5C)c4)cc3O)nn2)C1` (stereo not drawn) [Cpd 330, 5-(1-methyl-1H-indazol-5-yl)-2-(3-{3-[(propan-2-yl)amino]pyrrolidin-1-yl}-1,2,4-triazin-6-yl)phenol]: 1000 to 3000 nM; `CC(C)NC1CCN(c2ncc(-c3ccc(-n4ccnc4)cc3O)nn2)C1` (stereo not drawn) [Cpd 331]: 100 to 500 nM.
Compound `Oc1cc(-c2cn[nH]c2)ccc1-c1cnc(N2CC[C@H]3NCC[C@@H]32)nn1` [Cpd 332, 2-{3-[(3aR,6aS)-hexahydropyrrolo[3,2-b]pyrrol-1(2H)-yl]-1,2,4-triazin-6-yl}-5-(1H-pyrazol-4-yl)phenol] had an IC50 of at most 100 nM.
`OCCNC1CCN(c2ncc(-c3ccc(-c4cn[nH]c4)cc3O)nn2)C1` (stereo not drawn) [Cpd 333, 2-(3-{3-[(2-hydroxyethyl)amino]pyrrolidin-1-yl}-1,2,4-triazin-6-yl)-5-(1H-pyrazol-4-yl)phenol] came in with an IC50 of at most 100 nM.
Next, `NC1CN(c2ncc(-c3ccc(-c4cn[nH]c4)cc3O)nn2)CC12COC2` (stereo not drawn) [Cpd 334, 2-[3-(8-amino-2-oxa-6-azaspiro[3.4]octan-6-yl)-1,2,4-triazin-6-yl]-5-(1H-pyrazol-4-yl)phenol]: 1000 to 3000 nM; `Oc1cc(-c2cn[nH]c2)ccc1-c1cnc(N2CCC(NC3CCOCC3)C2)nn1` (stereo not drawn) [Cpd 335, 2-(3-{3-[(oxan-4-yl)amino]pyrrolidin-1-yl}-1,2,4-triazin-6-yl)-5-(1H-pyrazol-4-yl)phenol]: at most 100 nM; `COCC(C)NC1CCN(c2ncc(-c3ccc(-c4cn[nH]c4)cc3O)nn2)C1` (stereo not drawn) [Cpd 336, 2-(3-{3-[(1-methoxypropan-2-yl)amino]pyrrolidin-1-yl}-1,2,4-triazin-6-yl)-5-(1H-pyrazol-4-yl)phenol]: at most 100 nM.
For `Oc1cc(-c2cn[nH]c2)ccc1-c1cnc(N2CC3CNCC3C2)nn1` (stereo not drawn) [Cpd 337, 2-[3-(hexahydropyrrolo[3,4-c]pyrrol-2(1H)-yl)-1,2,4-triazin-6-yl]-5-(1H-pyrazol-4-yl)phenol] the value was at most 100 nM; for `CC(C)NC1CCN(c2ncc(-c3ccc(-n4cc(F)cn4)cc3O)nn2)C1` (stereo not drawn) [Cpd 338, 5-(4-fluoro-1H-pyrazol-1-yl)-2-(3-{3-[(propan-2-yl)amino]pyrrolidin-1-yl}-1,2,4-triazin-6-yl)phenol], 100 to 500 nM.
For `Oc1cc(-c2cn[nH]c2)ccc1-c1cnc(N2CCC3(CCCN3)C2)nn1` (stereo not drawn) [Cpd 339, 2-[3-(1,7-diazaspiro[4.4]nonan-7-yl)-1,2,4-triazin-6-yl]-5-(1H-pyrazol-4-yl)phenol] the value was at most 100 nM.
Compound `CC1(NC2CCN(c3ncc(-c4ccc(-c5cn[nH]c5)cc4O)nn3)C2)CC1` (stereo not drawn) [Cpd 340, 2-(3-{3-[(1-methylcyclopropyl)amino]pyrrolidin-1-yl}-1,2,4-triazin-6-yl)-5-(1H-pyrazol-4-yl)phenol] returned an IC50 of at most 100 nM.
In turn, `COCC(C)(C)NC1CCN(c2ncc(-c3ccc(-c4cn[nH]c4)cc3O)nn2)C1` (stereo not drawn) [Cpd 341, 2-(3-{3-[(1-methoxy-2-methylpropan-2-yl)amino]pyrrolidin-1-yl}-1,2,4-triazin-6-yl)-5-(1H-pyrazol-4-yl)phenol] showed an IC50 of at most 100 nM.
Next, `CN(c1cnc(-c2ccc(-c3ccc4c(cnn4C)c3)cc2O)nn1)C1CC(C)(C)NC(C)(C)C1` [Cpd 342, 5-(1-methyl-1H-indazol-5-yl)-2-{6-[methyl(2,2,6,6-tetramethylpiperidin-4-yl)amino]-1,2,4-triazin-3-yl}phenol]: 100 to 500 nM; `CN(c1cnc(-c2ccc(-c3ccn(C)n3)cc2O)nn1)C1CC(C)(C)NC(C)(C)C1` [Cpd 343, 5-(1-methyl-1H-pyrazol-3-yl)-2-{6-[methyl(2,2,6,6-tetramethylpiperidin-4-yl)amino]-1,2,4-triazin-3-yl}phenol]: at most 100 nM; `CN(c1ncc(-c2ccc(-c3cc(C#N)c4nccn4n3)cc2O)nn1)C1CC(C)(C)NC(C)(C)C1` [Cpd 344, 6-(3-hydroxy-4-{3-[methyl(2,2,6,6-tetramethylpiperidin-4-yl)amino]-1,2,4-triazin-6-yl}phenyl)imidazo[1,2-b]pyridazine-8-carbonitrile]: at most 100 nM.
Next, `Oc1cc(-c2cn[nH]c2)ccc1-c1cnc(N[C@H]2CCNC[C@H]2F)nn1` [Cpd 345, 2-(3-{[(3R,4S)-3-fluoropiperidin-4-yl]amino}-1,2,4-triazin-6-yl)-5-(1H-pyrazol-4-yl)phenol]: 100 to 500 nM.
`CN[C@@H]1CN(c2ncc(-c3ccc(-c4cn[nH]c4)cc3O)nn2)C[C@H]1OC` [Cpd 346, 2-{3-[(3R,4R)-3-methoxy-4-(methylamino)pyrrolidin-1-yl]-1,2,4-triazin-6-yl}-5-(1H-pyrazol-4-yl)phenol] registered a 50% inhibitory concentration (IC50) above 500 nM.
For `CC(C)N[C@H]1CCN(c2ncc(-c3ccc(-c4cn[nH]c4)cc3O)nn2)C1` [Cpd 347, 2-(3-{(3S)-3-[(propan-2-yl)amino]pyrrolidin-1-yl}-1,2,4-triazin-6-yl)-5-(1H-pyrazol-4-yl)phenol] the value was at most 100 nM.
As to `CC(C)N[C@@H]1CCN(c2ncc(-c3ccc(-c4cn[nH]c4)cc3O)nn2)C1` [Cpd 348, 2-(3-{(3R)-3-[(propan-2-yl)amino]pyrrolidin-l-yl}-1,2,4-triazin-6-yl)-5-(1H-pyrazol-4-yl)phenol], the IC50 was at most 100 nM.
Next, `Oc1cc(-c2cn[nH]c2)ccc1-c1cnc(N2CCC(NC34CC(C3)C4)C2)nn1` (stereo not drawn) [Cpd 349, 2-(3-{3-[(bicyclo[1.1.1]pentan-1-yl)amino]pyrrolidin-l-yl}-1,2,4-triazin-6-yl)-5-(1H-pyrazol-4-yl)phenol]: 100 to 500 nM.

For the origin of these results see patent US11780839B2, “Compounds for treating Huntington's disease” (PTC THERAPEUTICS, INC., priority 2018, dated 2023).
